Laboratory results from ChEMBL document CHEMBL3137667, “[Drug-induced liver injury; fourteenth updated edition of the bibliographic database of liver injuries and related drugs]” (Gastroenterol Clin Biol, 2004).

Experiments:
[1] = Highest frequency of acute liver toxicity observed during clinical trials, expressed as a percentage. [column '% AIGUE' in source]; details: human
[2] = human
[3] = human, serum
[4] = human; remark: listed apart in the source
[5] = human, serum; remark: listed apart in the source
[6] = human; remark: listed apart in the source
[7] = human; remark: listed apart in the source
[8] = human, serum, 4383 h
[9] = human; remark: listed apart in the source
[10] = human; remark: listed apart in the source
[11] = human; remark: listed apart in the source
[12] = Highest frequency of moderate liver toxicity observed during clinical trials, expressed as a percentage. [column '% BIOL' in source]; details: human
[13] = human; remark: listed apart in the source
[14] = human; remark: listed apart in the source
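Wherever Hepatotoxicity (association with vascular disease) is given: count of indexed literature references reporting vascular liver injury in humans, e.g. peliosis hepatitis, hepatic veno-occlusive disease or Budd-Chiari syndrome.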
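Wherever Hepatotoxicity (benign tumour) is given: value is a count of indexed literature references citing a benign tumour confirmed by histopathology.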
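Wherever Hepatotoxicity (choleostasis) is given: human cholestatic liver injury, shown by histopathology or by peak ALT or AST elevation over alkaline phosphatase ratio below 2, value counts indexed literature reports.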
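Wherever Hepatotoxicity (chronic liver disease) is given: chronic liver injury confirmed by histopathology or persistently raised serum aminotransferase activity beyond 6 months, value given as the count of indexed literature references.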
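Wherever Hepatotoxicity (cirrhosis) is given: value is a count of indexed literature references reporting cirrhosis confirmed by histopathology.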
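Wherever Hepatotoxicity (cytolytic) is given: human cytolytic liver injury, shown by histopathology or by a ratio above 5 of peak ALT or AST elevation to alkaline phosphatase elevation, value counts indexed references.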
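Wherever Hepatotoxicity (granulomatous hepatitis) is given: value is a count of indexed literature references reporting granulomatous liver disease confirmed by histopathology.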
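Wherever Hepatotoxicity (malignant tumour) is given: malignant tumour confirmed by histopathology, value gives the count of indexed literature references reporting it.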
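Wherever Hepatotoxicity (severe hepatitis) is given: human clinical data: severe hepatitis, meaning potentially life-threatening liver failure or clinically observed cases, the value counts how many indexed literature references report it.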
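Wherever Hepatotoxicity (steatosis) is given: steatosis confirmed by histopathology, value is the count of indexed references.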

C[C@@H]1C[C@H](C)CN(S(=O)(=O)c2ccc(Cl)c(C(=O)O)c2)C1 [TIBRIC ACID]
Hepatotoxicity (acute) [1]: 0%
Hepatotoxicity (granulomatous hepatitis) [2]: 0
Hepatotoxicity (moderate) [3]: 1
Hepatotoxicity (association with vascular disease) [4]: 0
Hepatotoxicity (acute) [5]: 0
Hepatotoxicity (cytolytic) [6]: 0
Hepatotoxicity (severe hepatitis) [7]: 0
Hepatotoxicity (chronic liver disease) [8]: 0
Hepatotoxicity (benign tumour) [9]: 0
Hepatotoxicity (steatosis) [10]: 0
Hepatotoxicity (cirrhosis) [11]: 0
Hepatotoxicity (moderate) [12]: 0%
Hepatotoxicity (malignant tumour) [13]: 0
Hepatotoxicity (choleostasis) [14]: 0

CC(C)CCOc1ccc(NC(=S)Nc2ccc(OCCC(C)C)cc2)cc1 [TIOCARLIDE]
Hepatotoxicity (acute) [1]: 0.4%
Hepatotoxicity (granulomatous hepatitis) [2]: 0
Hepatotoxicity (moderate) [3]: 1
Hepatotoxicity (association with vascular disease) [4]: 0
Hepatotoxicity (acute) [5]: 2
Hepatotoxicity (cytolytic) [6]: 2
Hepatotoxicity (severe hepatitis) [7]: 0
Hepatotoxicity (chronic liver disease) [8]: 0
Hepatotoxicity (benign tumour) [9]: 0
Hepatotoxicity (steatosis) [10]: 0
Hepatotoxicity (cirrhosis) [11]: 0
Hepatotoxicity (moderate) [12]: 4.5%
Hepatotoxicity (malignant tumour) [13]: 0
Hepatotoxicity (choleostasis) [14]: 0

Clc1ccc(C(Cn2ccnc2)OCc2ccsc2Cl)c(Cl)c1 (stereo not drawn) [TIOCONAZOLE]
Hepatotoxicity (acute) ([1]; Liver): 0%
Hepatotoxicity (granulomatous hepatitis) ([2]; Liver): 0
Hepatotoxicity (moderate) [3]: 1
Hepatotoxicity (association with vascular disease) [4]: 0
Hepatotoxicity (acute) [5]: 0
Hepatotoxicity (cytolytic) ([6]; Liver): 0
Hepatotoxicity (severe hepatitis) ([7]; Liver): 0
Hepatotoxicity (chronic liver disease) [8]: 0
Hepatotoxicity (benign tumour) [9]: 0
Hepatotoxicity (steatosis) [10]: 0
Hepatotoxicity (cirrhosis) [11]: 0
Hepatotoxicity (moderate) ([12]; Liver): 5.3%
Hepatotoxicity (malignant tumour) [13]: 0
Hepatotoxicity (choleostasis) ([14]; Liver): 0

O=C1CC2(CCCC2)CC(=O)N1CCCCN1CCN(c2nsc3ccccc23)CC1 [TIOSPIRONE]
Hepatotoxicity (acute) [1]: 0%
Hepatotoxicity (granulomatous hepatitis) [2]: 0
Hepatotoxicity (moderate) [3]: 1
Hepatotoxicity (association with vascular disease) [4]: 0
Hepatotoxicity (acute) [5]: 0
Hepatotoxicity (cytolytic) [6]: 0
Hepatotoxicity (severe hepatitis) [7]: 0
Hepatotoxicity (chronic liver disease) [8]: 0
Hepatotoxicity (benign tumour) [9]: 0
Hepatotoxicity (steatosis) [10]: 0
Hepatotoxicity (cirrhosis) [11]: 0
Hepatotoxicity (moderate) [12]: 7.1%
Hepatotoxicity (malignant tumour) [13]: 0
Hepatotoxicity (choleostasis) [14]: 0

CC[C@@]1(O)C(=O)OCc2c1cc1n(c2=O)Cc2cc3c(CN(C)C)c(O)ccc3nc2-1 [TOPOTECAN]
Hepatotoxicity (acute) [1]: 0%
Hepatotoxicity (granulomatous hepatitis) [2]: 0
Hepatotoxicity (moderate) [3]: 1
Hepatotoxicity (association with vascular disease) [4]: 0
Hepatotoxicity (acute) [5]: 0
Hepatotoxicity (cytolytic) [6]: 0
Hepatotoxicity (severe hepatitis) [7]: 0
Hepatotoxicity (chronic liver disease) [8]: 0
Hepatotoxicity (benign tumour) [9]: 0
Hepatotoxicity (steatosis) [10]: 0
Hepatotoxicity (cirrhosis) [11]: 0
Hepatotoxicity (moderate) [12]: 5.3%
Hepatotoxicity (malignant tumour) [13]: 0
Hepatotoxicity (choleostasis) [14]: 0

Cc1cccc(Nc2ccncc2S(=O)(=O)NC(=O)NC(C)C)c1 [TORSEMIDE]
Hepatotoxicity (acute) [1]: 0%
Hepatotoxicity (granulomatous hepatitis) [2]: 0
Hepatotoxicity (moderate) [3]: 1
Hepatotoxicity (association with vascular disease) [4]: 0
Hepatotoxicity (acute) [5]: 0
Hepatotoxicity (cytolytic) [6]: 0
Hepatotoxicity (severe hepatitis) [7]: 0
Hepatotoxicity (chronic liver disease) [8]: 0
Hepatotoxicity (benign tumour) [9]: 0
Hepatotoxicity (steatosis) [10]: 0
Hepatotoxicity (cirrhosis) [11]: 0
Hepatotoxicity (moderate) [12]: 0.6%
Hepatotoxicity (malignant tumour) [13]: 0
Hepatotoxicity (choleostasis) [14]: 0

NC1CCN(c2nc3c(cc2F)c(=O)c(C(=O)O)cn3-c2ccc(F)cc2F)C1 (stereo not drawn) [TOSUFLOXACIN]
Hepatotoxicity (acute) [1]: 0%
Hepatotoxicity (granulomatous hepatitis) [2]: 0
Hepatotoxicity (moderate) [3]: 3
Hepatotoxicity (association with vascular disease) [4]: 0
Hepatotoxicity (acute) [5]: 0
Hepatotoxicity (cytolytic) [6]: 0
Hepatotoxicity (severe hepatitis) [7]: 0
Hepatotoxicity (chronic liver disease) [8]: 0
Hepatotoxicity (benign tumour) [9]: 0
Hepatotoxicity (steatosis) [10]: 0
Hepatotoxicity (cirrhosis) [11]: 0
Hepatotoxicity (moderate) [12]: 6.1%
Hepatotoxicity (malignant tumour) [13]: 0
Hepatotoxicity (choleostasis) [14]: 0

COc1cccc(C2(O)CCCCC2CN(C)C)c1 (stereo not drawn) [TRAMADOL]
Hepatotoxicity (acute) [1]: 0%
Hepatotoxicity (granulomatous hepatitis) [2]: 0
Hepatotoxicity (moderate) [3]: 1
Hepatotoxicity (association with vascular disease) [4]: 0
Hepatotoxicity (acute) [5]: 0
Hepatotoxicity (cytolytic) [6]: 0
Hepatotoxicity (severe hepatitis) [7]: 0
Hepatotoxicity (chronic liver disease) [8]: 0
Hepatotoxicity (benign tumour) [9]: 0
Hepatotoxicity (steatosis) [10]: 0
Hepatotoxicity (cirrhosis) [11]: 0
Hepatotoxicity (moderate) [12]: 0%
Hepatotoxicity (malignant tumour) [13]: 0
Hepatotoxicity (choleostasis) [14]: 0

OC(CCN1CCCCC1)(c1ccccc1)C1CCCCC1 (stereo not drawn) [TRIHEXYPHENIDYL]
Hepatotoxicity (acute) ([1]; Liver): 0%
Hepatotoxicity (granulomatous hepatitis) ([2]; Liver): 0
Hepatotoxicity (moderate) [3]: 0
Hepatotoxicity (association with vascular disease) [4]: 0
Hepatotoxicity (acute) [5]: 1
Hepatotoxicity (cytolytic) ([6]; Liver): 1
Hepatotoxicity (severe hepatitis) ([7]; Liver): 1
Hepatotoxicity (chronic liver disease) [8]: 0
Hepatotoxicity (benign tumour) [9]: 0
Hepatotoxicity (steatosis) [10]: 0
Hepatotoxicity (cirrhosis) [11]: 0
Hepatotoxicity (moderate) ([12]; Liver): 0%
Hepatotoxicity (malignant tumour) [13]: 0
Hepatotoxicity (choleostasis) ([14]; Liver): 0

COc1cc(NCc2ccc3nc(N)nc(N)c3c2C)cc(OC)c1OC [TRIMETREXATE]
Hepatotoxicity (acute) [1]: 8%
Hepatotoxicity (granulomatous hepatitis) [2]: 0
Hepatotoxicity (moderate) [3]: 10
Hepatotoxicity (association with vascular disease) [4]: 0
Hepatotoxicity (acute) [5]: 1
Hepatotoxicity (cytolytic) [6]: 0
Hepatotoxicity (severe hepatitis) [7]: 0
Hepatotoxicity (chronic liver disease) [8]: 0
Hepatotoxicity (benign tumour) [9]: 0
Hepatotoxicity (steatosis) [10]: 0
Hepatotoxicity (cirrhosis) [11]: 0
Hepatotoxicity (moderate) [12]: 25%
Hepatotoxicity (malignant tumour) [13]: 0
Hepatotoxicity (choleostasis) [14]: 0

CCCCC(C)(C)[C@H](O)/C=C/[C@H]1[C@H](C)CC(=O)[C@@H]1C/C=C\CCCC(=O)O [TRIMOPROSTIL]
Hepatotoxicity (acute) [1]: 0%
Hepatotoxicity (granulomatous hepatitis) [2]: 0
Hepatotoxicity (moderate) [3]: 1
Hepatotoxicity (association with vascular disease) [4]: 0
Hepatotoxicity (acute) [5]: 0
Hepatotoxicity (cytolytic) [6]: 0
Hepatotoxicity (severe hepatitis) [7]: 0
Hepatotoxicity (chronic liver disease) [8]: 0
Hepatotoxicity (benign tumour) [9]: 0
Hepatotoxicity (steatosis) [10]: 0
Hepatotoxicity (cirrhosis) [11]: 0
Hepatotoxicity (moderate) [12]: 0%
Hepatotoxicity (malignant tumour) [13]: 0
Hepatotoxicity (choleostasis) [14]: 0

CN(C)CCN(Cc1ccccc1)c1ccccn1 [TRIPELENNAMINE]
Hepatotoxicity (acute) [1]: 0%
Hepatotoxicity (granulomatous hepatitis) [2]: 0
Hepatotoxicity (moderate) [3]: 0
Hepatotoxicity (association with vascular disease) [4]: 0
Hepatotoxicity (acute) [5]: 1
Hepatotoxicity (cytolytic) [6]: 1
Hepatotoxicity (severe hepatitis) [7]: 0
Hepatotoxicity (chronic liver disease) [8]: 0
Hepatotoxicity (benign tumour) [9]: 0
Hepatotoxicity (steatosis) [10]: 0
Hepatotoxicity (cirrhosis) [11]: 0
Hepatotoxicity (moderate) [12]: 0%
Hepatotoxicity (malignant tumour) [13]: 0
Hepatotoxicity (choleostasis) [14]: 1
